Assay results as given in patent publication US20250197369A1, “NOVEL HETEROCYCLIC INHIBITOR FOR HISTONE DEACETYLASE, AND PHARMACEUTICAL COMPOSITION COMPRISING SAME” (SOOKMYUNG WOMEN'S UNIVERSITY INDUSTRY-ACADEMIC COOPERATION …, priority 2022, published 2025).

tested on: not listed separately; experiment: MS (in mouse); type: in vitro ADME; set-up: unit not given here; conditions: not given

Point of comparison: `O=C(NO)c1ccc2cn(Cc3ccc(F)cc3)nc2c1` [Compound 53, 2-(4-Fluorobenzyl)-2H-indazole-6-carboxylic acid hydroxyamide], “MS (in mouse)” value 71.3. Against it:
- O=C(NO)c1ccc2cn(Cc3ccccc3)nc2c1 [Compound 50, 2-Benzyl-2H-indazole-6-carboxylic acid hydroxyamide] — higher, 79.3
- O=C(NO)c1ccc2cn(Cc3ccc(Cl)cc3)nc2c1 [Compound 54, 2-(4-Chlorobenzyl)-2H-indazole-6-carboxylic acid hydroxyamide] — lower, 40.8
- COc1ccc(Cn2cc3ccc(C(=O)NO)cc3n2)cc1 [Compound 51, 2-(4-Methoxybenzyl)-2H-indazole-6-carboxylic acid hydroxyamide] — higher, 98.6

target: HDAC6 (Homo sapiens (Human), UniProt Q9UBN7); experiment: HDAC6 inhibitory activity (fluorogenic HDAC substrate); type: biochemical; conditions: culture 30° C. for 1 hour
Sequence (Q9UBN7 whole entry): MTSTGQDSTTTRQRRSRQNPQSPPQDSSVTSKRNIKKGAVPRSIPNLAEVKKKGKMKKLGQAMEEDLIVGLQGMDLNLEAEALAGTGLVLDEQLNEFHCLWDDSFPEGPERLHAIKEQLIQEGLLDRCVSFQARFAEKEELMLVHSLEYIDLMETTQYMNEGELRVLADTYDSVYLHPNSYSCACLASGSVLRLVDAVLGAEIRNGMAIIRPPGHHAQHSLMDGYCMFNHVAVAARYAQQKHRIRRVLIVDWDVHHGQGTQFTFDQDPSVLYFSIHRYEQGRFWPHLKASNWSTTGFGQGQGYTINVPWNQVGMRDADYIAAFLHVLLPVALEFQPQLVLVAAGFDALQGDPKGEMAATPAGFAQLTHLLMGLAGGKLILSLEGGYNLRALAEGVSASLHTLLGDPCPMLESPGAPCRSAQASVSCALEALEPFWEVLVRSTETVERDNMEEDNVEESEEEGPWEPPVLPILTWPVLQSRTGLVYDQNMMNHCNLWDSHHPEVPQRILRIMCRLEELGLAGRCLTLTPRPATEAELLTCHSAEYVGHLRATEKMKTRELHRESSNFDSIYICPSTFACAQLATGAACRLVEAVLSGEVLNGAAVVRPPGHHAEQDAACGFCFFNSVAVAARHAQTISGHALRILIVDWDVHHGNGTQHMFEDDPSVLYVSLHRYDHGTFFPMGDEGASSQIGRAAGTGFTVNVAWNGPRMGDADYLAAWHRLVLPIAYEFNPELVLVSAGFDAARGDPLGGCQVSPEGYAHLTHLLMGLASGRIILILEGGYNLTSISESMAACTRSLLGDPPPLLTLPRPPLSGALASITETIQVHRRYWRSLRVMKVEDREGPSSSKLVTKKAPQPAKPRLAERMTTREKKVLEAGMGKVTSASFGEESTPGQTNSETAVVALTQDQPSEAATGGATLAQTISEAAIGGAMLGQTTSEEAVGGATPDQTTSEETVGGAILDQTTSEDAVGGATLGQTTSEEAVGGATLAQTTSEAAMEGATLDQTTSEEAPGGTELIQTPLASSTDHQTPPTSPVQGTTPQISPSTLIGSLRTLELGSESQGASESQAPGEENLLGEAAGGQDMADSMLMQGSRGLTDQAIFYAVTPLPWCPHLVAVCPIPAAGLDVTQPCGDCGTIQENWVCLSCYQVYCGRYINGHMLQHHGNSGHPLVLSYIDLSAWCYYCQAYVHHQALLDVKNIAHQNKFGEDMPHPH
Protocol: (§1) 2×HDAC enzymes were dispensed in each well of the reaction plate except for the control well without HDAC enzyme, and buffer was dispensed in the control well without the enzyme. Using acoustic technology (Echo550, nanoliter range), compounds dissolved in 100% DMSO were added to the enzyme mixture, spun down, and pre-cultured at room temperature for 10 minutes. All reaction wells were placed with a 2× substrate mixture (fluorogenic HDAC substrate) to initiate the reaction and then spun down. Culture was performed at 30° C. for 1 hour for HDAC6 and 2 hours for HDAC8.
(§2) Afterwards, a developer was added along with trichostatin A to halt the reaction and develop fluorescence. Dynamics measurements were performed with Envision (Ex/Em=360/460 nm) for 20 minutes with 5-minute intervals, and values from endpoint reading were taken for analysis after the phenomenon reached a plateau.

Point of comparison: `O=C(NO)c1ccc2cn(Cc3ccc4ccccc4c3)nc2c1` [Compound 58, 2-Naphthalen-2-ylmethyl-2H-indazole-6-carboxylic acid hydroxyamide], IC50 4.2 nM. Against it:
- O=C(NO)c1ccc2cn(Cc3cccc(OCc4ccccc4)c3)nc2c1 [Compound 71, 2-(3-Benzyloxybenzyl)-2H-indazole-6-carboxylic acid hydroxyamide] — 3.2-fold higher, 13.5 nM
- O=C(NO)c1ccc2cn(Cc3cccc(F)c3)nc2c1 [Compound 66, 2-(3-Fluorobenzyl)-2H-indazole-6-carboxylic acid hydroxyamide] — 2.3-fold lower, 1.8 nM
- COc1cccc(Cn2cc3cc(F)c(C(=O)NO)cc3n2)c1 [Compound 90, 2-(3-Methoxybenzyl)-5-fluoro-2H-indazole-6-carboxylic acid hydroxyamide] — 18-fold higher, 75.4 nM
- COc1ccc(CCn2cc3ccc(C(=O)NO)cc3n2)cc1 [Compound 60, 2-(2-4-Methoxyphenylethyl)-2H-indazole-6-carboxylic acid hydroxyamide] — within 1.5-fold, 4.7 nM
- COc1cccc(Cn2cc3ccc(C(=O)NO)cc3n2)c1 [Compound 70, 2-(3-Methoxybenzyl)-2H-indazole-6-carboxylic acid hydroxyamide] — 2.3-fold lower, 1.8 nM
- O=C(NO)c1ccc2cn(Cc3ccccc3)nc2c1 [Compound 50, 2-Benzyl-2H-indazole-6-carboxylic acid hydroxyamide] — 1.6-fold lower, 2.6 nM
- O=C(NO)c1ccc2cn(Cc3ccc(Cl)cc3)nc2c1 [Compound 54, 2-(4-Chlorobenzyl)-2H-indazole-6-carboxylic acid hydroxyamide] — 1.6-fold lower, 2.7 nM
- O=C(NO)c1ccc2cn(Cc3ccc(OC(F)F)cc3)nc2c1 [Compound 62, 2-(4-Difluoromethoxybenzyl)-2H-indazole-6-carboxylic acid hydroxyamide] — within 1.5-fold, 4.1 nM
- O=C(NO)c1ccc2cn(Cc3ccc(Br)cc3)nc2c1 [Compound 55, 2-(4-Bromobenzyl)-2H-indazole-6-carboxylic acid hydroxyamide] — within 1.5-fold, 3.4 nM
- O=C(NO)c1ccc2cn(Cc3cccc(Oc4ccccc4)c3)nc2c1 [Compound 73, 2-(3-Phenoxybenzyl)-2H-indazole-6-carboxylic acid hydroxyamide] — 5.4-fold higher, 22.8 nM
- COc1cc(Cn2cc3ccc(C(=O)NO)cc3n2)cc(OC)c1 [Compound 72, 2-(3,5-Dimethoxybenzyl)-2H-indazole-6-carboxylic acid hydroxyamide] — within 1.5-fold, 3.8 nM
- O=C(NO)c1ccc2cn(Cc3ccc(C(F)(F)F)cc3)nc2c1 [Compound 69, 2-(4-Trifluoromethylbenzyl)-2H-indazole-6-carboxylic acid hydroxyamide] — within 1.5-fold, 3 nM
- O=C(NO)c1ccc2cn(Cc3ccc(-c4ccccc4)cc3)nc2c1 [Compound 63, 2-Biphenyl-4-ylmethyl-2H-indazole-6-carboxylic acid hydroxyamide] — within 1.5-fold, 3.6 nM
- O=C(NO)c1cc2nn(Cc3ccccc3)cc2cc1F [Compound 88, 2-Benzyl-5-fluoro-2H-indazole-6-carboxylic acid hydroxyamide] — 18-fold higher, 74.3 nM
- O=C(NO)c1ccc2cn(Cc3cccc(C(F)(F)F)c3)nc2c1 [Compound 68, 2-(3-Trifluoromethylbenzyl)-2H-indazole-6-carboxylic acid hydroxyamide] — within 1.5-fold, 3.3 nM
- Cc1ccc(Cn2cc3ccc(C(=O)NO)cc3n2)cc1 [Compound 52, 2-(4-Methylbenzyl)-2H-indazole-6-carboxylic acid hydroxyamide] — 1.8-fold higher, 7.4 nM
- O=C(NO)c1ccc2cn(Cc3ccc(OC(F)(F)F)cc3)nc2c1 [Compound 57, 2-(4-Trifluoromethoxybenzyl)-2H-indazole-6-carboxylic acid hydroxyamide] — within 1.5-fold, 5.5 nM
- O=C(NO)c1ccc2cn(Cc3ccc(F)cc3)nc2c1 [Compound 53, 2-(4-Fluorobenzyl)-2H-indazole-6-carboxylic acid hydroxyamide] — within 1.5-fold, 5.9 nM
- CC(C)c1ccc(Cn2cc3ccc(C(=O)NO)cc3n2)cc1 [Compound 64, 2-(4-Isopropylbenzyl)-2H-indazole-6-carboxylic acid hydroxyamide] — 7-fold higher, 29.3 nM
- O=C(NO)c1ccc2cn(Cc3cccc(OC(F)(F)F)c3)nc2c1 [Compound 56, 2-(3-Trifluoromethoxybenzyl)-2H-indazole-6-carboxylic acid hydroxyamide] — within 1.5-fold, 4.4 nM
- COc1ccc(Cn2cc3ccc(C(=O)NO)cc3n2)cc1 [Compound 51, 2-(4-Methoxybenzyl)-2H-indazole-6-carboxylic acid hydroxyamide] — within 1.5-fold, 5.4 nM
- O=C(NO)c1ccc2cn(CCc3ccc(F)cc3)nc2c1 [Compound 65, 2-(2-4-Fluorophenylethyl)-2H-indazole-6-carboxylic acid hydroxyamide] — 1.6-fold higher, 6.7 nM
- O=C(NO)c1ccc2cn(Cc3cccc(Cl)c3)nc2c1 [Compound 67, 2-(3-Chlorobenzyl)-2H-indazole-6-carboxylic acid hydroxyamide] — 3.2-fold lower, 1.3 nM
- O=C(NO)c1ccc2cn(CCc3ccccc3)nc2c1 [Compound 59, 2-Phenethyl-2H-indazole-6-carboxylic acid hydroxyamide] — within 1.5-fold, 4 nM
- O=C(NO)c1ccc2cn(Cc3cc(F)cc(F)c3)nc2c1 [Compound 61, 2-(3,5-Difluorobenzyl)-2H-indazole-6-carboxylic acid hydroxyamide] — within 1.5-fold, 3.9 nM
- O=C(NO)c1cc2nn(Cc3cccc(Cl)c3)cc2cc1F [Compound 89, 2-(3-chlorobenzyl)-5-fluoro-2H-indazole-6-carboxylic acid hydroxyamide] — 7.2-fold higher, 30.3 nM

target: HDAC8 (Homo sapiens (Human), UniProt Q9BY41); experiment: HDAC8 inhibitory activity (fluorogenic HDAC substrate); type: biochemical; conditions: culture 30° C. for 2 hours
Sequence (Q9BY41 whole entry, species assumed): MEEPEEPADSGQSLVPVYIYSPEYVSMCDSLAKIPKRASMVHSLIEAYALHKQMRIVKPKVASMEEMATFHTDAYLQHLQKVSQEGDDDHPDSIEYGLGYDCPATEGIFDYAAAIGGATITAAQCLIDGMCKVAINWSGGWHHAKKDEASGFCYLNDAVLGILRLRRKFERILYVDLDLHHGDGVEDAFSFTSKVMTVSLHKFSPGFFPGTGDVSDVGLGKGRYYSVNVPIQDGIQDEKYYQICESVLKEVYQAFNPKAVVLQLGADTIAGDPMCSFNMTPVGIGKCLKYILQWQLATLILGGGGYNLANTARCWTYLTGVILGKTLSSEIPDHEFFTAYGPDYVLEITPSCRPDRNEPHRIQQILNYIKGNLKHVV
Protocol: as §1, §2

Point of comparison: `O=C(NO)c1ccc2cn(Cc3ccc(C(F)(F)F)cc3)nc2c1` [Compound 69, 2-(4-Trifluoromethylbenzyl)-2H-indazole-6-carboxylic acid hydroxyamide], IC50 598 nM. Against it:
- O=C(NO)c1ccc2cn(Cc3cccc(OCc4ccccc4)c3)nc2c1 [Compound 71, 2-(3-Benzyloxybenzyl)-2H-indazole-6-carboxylic acid hydroxyamide] — 3.5-fold higher, 2120 nM
- O=C(NO)c1ccc2cn(Cc3cccc(F)c3)nc2c1 [Compound 66, 2-(3-Fluorobenzyl)-2H-indazole-6-carboxylic acid hydroxyamide] — 1.9-fold higher, 1130 nM
- COc1cccc(Cn2cc3cc(F)c(C(=O)NO)cc3n2)c1 [Compound 90, 2-(3-Methoxybenzyl)-5-fluoro-2H-indazole-6-carboxylic acid hydroxyamide] — 4.8-fold higher, 2850 nM
- COc1ccc(CCn2cc3ccc(C(=O)NO)cc3n2)cc1 [Compound 60, 2-(2-4-Methoxyphenylethyl)-2H-indazole-6-carboxylic acid hydroxyamide] — 1.8-fold higher, 1100 nM
- COc1cccc(Cn2cc3ccc(C(=O)NO)cc3n2)c1 [Compound 70, 2-(3-Methoxybenzyl)-2H-indazole-6-carboxylic acid hydroxyamide] — 1.6-fold higher, 967 nM
- O=C(NO)c1ccc2cn(Cc3ccccc3)nc2c1 [Compound 50, 2-Benzyl-2H-indazole-6-carboxylic acid hydroxyamide] — 2.2-fold higher, 1320 nM
- O=C(NO)c1ccc2cn(Cc3ccc(Cl)cc3)nc2c1 [Compound 54, 2-(4-Chlorobenzyl)-2H-indazole-6-carboxylic acid hydroxyamide] — within 1.5-fold, 776 nM
- O=C(NO)c1ccc2cn(Cc3ccc(OC(F)F)cc3)nc2c1 [Compound 62, 2-(4-Difluoromethoxybenzyl)-2H-indazole-6-carboxylic acid hydroxyamide] — within 1.5-fold, 500 nM
- O=C(NO)c1ccc2cn(Cc3ccc(Br)cc3)nc2c1 [Compound 55, 2-(4-Bromobenzyl)-2H-indazole-6-carboxylic acid hydroxyamide] — within 1.5-fold, 593 nM
- O=C(NO)c1ccc2cn(Cc3cccc(Oc4ccccc4)c3)nc2c1 [Compound 73, 2-(3-Phenoxybenzyl)-2H-indazole-6-carboxylic acid hydroxyamide] — 3.3-fold higher, 2000 nM
- COc1cc(Cn2cc3ccc(C(=O)NO)cc3n2)cc(OC)c1 [Compound 72, 2-(3,5-Dimethoxybenzyl)-2H-indazole-6-carboxylic acid hydroxyamide] — within 1.5-fold, 814 nM
- O=C(NO)c1ccc2cn(Cc3ccc(-c4ccccc4)cc3)nc2c1 [Compound 63, 2-Biphenyl-4-ylmethyl-2H-indazole-6-carboxylic acid hydroxyamide] — 2.2-fold higher, 1290 nM
- O=C(NO)c1cc2nn(Cc3ccccc3)cc2cc1F [Compound 88, 2-Benzyl-5-fluoro-2H-indazole-6-carboxylic acid hydroxyamide] — 6.4-fold higher, 3840 nM
- O=C(NO)c1ccc2cn(Cc3cccc(C(F)(F)F)c3)nc2c1 [Compound 68, 2-(3-Trifluoromethylbenzyl)-2H-indazole-6-carboxylic acid hydroxyamide] — within 1.5-fold, 738 nM
- Cc1ccc(Cn2cc3ccc(C(=O)NO)cc3n2)cc1 [Compound 52, 2-(4-Methylbenzyl)-2H-indazole-6-carboxylic acid hydroxyamide] — within 1.5-fold, 699 nM
- O=C(NO)c1ccc2cn(Cc3ccc(OC(F)(F)F)cc3)nc2c1 [Compound 57, 2-(4-Trifluoromethoxybenzyl)-2H-indazole-6-carboxylic acid hydroxyamide] — 1.8-fold higher, 1070 nM
- O=C(NO)c1ccc2cn(Cc3ccc(F)cc3)nc2c1 [Compound 53, 2-(4-Fluorobenzyl)-2H-indazole-6-carboxylic acid hydroxyamide] — 1.6-fold higher, 932 nM
- CC(C)c1ccc(Cn2cc3ccc(C(=O)NO)cc3n2)cc1 [Compound 64, 2-(4-Isopropylbenzyl)-2H-indazole-6-carboxylic acid hydroxyamide] — 4.8-fold higher, 2860 nM
- O=C(NO)c1ccc2cn(Cc3cccc(OC(F)(F)F)c3)nc2c1 [Compound 56, 2-(3-Trifluoromethoxybenzyl)-2H-indazole-6-carboxylic acid hydroxyamide] — 1.7-fold higher, 1020 nM
- O=C(NO)c1ccc2cn(Cc3ccc4ccccc4c3)nc2c1 [Compound 58, 2-Naphthalen-2-ylmethyl-2H-indazole-6-carboxylic acid hydroxyamide] — within 1.5-fold, 870 nM
- COc1ccc(Cn2cc3ccc(C(=O)NO)cc3n2)cc1 [Compound 51, 2-(4-Methoxybenzyl)-2H-indazole-6-carboxylic acid hydroxyamide] — within 1.5-fold, 765 nM
- O=C(NO)c1ccc2cn(CCc3ccc(F)cc3)nc2c1 [Compound 65, 2-(2-4-Fluorophenylethyl)-2H-indazole-6-carboxylic acid hydroxyamide] — 2.5-fold higher, 1520 nM
- O=C(NO)c1ccc2cn(Cc3cccc(Cl)c3)nc2c1 [Compound 67, 2-(3-Chlorobenzyl)-2H-indazole-6-carboxylic acid hydroxyamide] — 14-fold higher, 8390 nM
- O=C(NO)c1ccc2cn(CCc3ccccc3)nc2c1 [Compound 59, 2-Phenethyl-2H-indazole-6-carboxylic acid hydroxyamide] — 2-fold higher, 1170 nM
- O=C(NO)c1ccc2cn(Cc3cc(F)cc(F)c3)nc2c1 [Compound 61, 2-(3,5-Difluorobenzyl)-2H-indazole-6-carboxylic acid hydroxyamide] — within 1.5-fold, 877 nM
- O=C(NO)c1cc2nn(Cc3cccc(Cl)c3)cc2cc1F [Compound 89, 2-(3-chlorobenzyl)-5-fluoro-2H-indazole-6-carboxylic acid hydroxyamide] — 4-fold higher, 2370 nM

tested on: not listed separately; experiment: MS (in human); type: in vitro ADME; set-up: unit not given here; conditions: not given

Point of comparison: `O=C(NO)c1ccc2cn(Cc3ccccc3)nc2c1` [Compound 50, 2-Benzyl-2H-indazole-6-carboxylic acid hydroxyamide], “MS (in human)” value 97.6. Against it:
- O=C(NO)c1ccc2cn(Cc3ccc(Cl)cc3)nc2c1 [Compound 54, 2-(4-Chlorobenzyl)-2H-indazole-6-carboxylic acid hydroxyamide] — lower, 49.3
- O=C(NO)c1ccc2cn(Cc3ccc(F)cc3)nc2c1 [Compound 53, 2-(4-Fluorobenzyl)-2H-indazole-6-carboxylic acid hydroxyamide] — lower, 85.9
- COc1ccc(Cn2cc3ccc(C(=O)NO)cc3n2)cc1 [Compound 51, 2-(4-Methoxybenzyl)-2H-indazole-6-carboxylic acid hydroxyamide] — lower, 76.7
